We go through 81 compounds from the PolyMetriX glass transition set.

Structures are written as SMILES.

Turning to `*C#Cc1cccc(C#C[SiH](*)c2ccccc2)c1` (repeat unit), the glass transition temperature turned out to be 85.00 °C.
Next, `*C(=O)CCCCCCCCC(=O)N1CC(C)N(*)CC1C` (repeat unit): -60.50 °C; `*CC(*)OC(=O)CC(C)(C)c1ccccc1` (repeat unit): 20.00 °C.
For `*CC(*)OC(=O)CC1CCCCC1` (repeat unit) the value was 25.00 °C; for `*CC(*)OC(=O)CCCC1CCCCC1` (repeat unit), -10.00 °C; for `*CC(*)OC(=O)OCC(Cl)(Cl)Cl` (repeat unit), 74.00 °C.
`*CC(*)OC(=O)OCC(F)(F)F` (repeat unit) displayed a glass transition temperature of 57.00 °C.
Regarding `*CC(*)OC(=O)c1ccc(OC)cc1` (repeat unit), the glass transition temperature came out at 86.50 °C.
`*CC(*)OC(=O)c1ccc(OCC)cc1` (repeat unit) showed a glass transition temperature of 70.00 °C.
For `*CC(*)OC(=O)c1ccc([Si](C)(C)C)cc1` (repeat unit) the value was 130.50 °C.
Next, `*CC(*)OC(=O)c1cccc(C)c1` (repeat unit): 49.00 °C.
For `*CC(*)OC(=O)c1cccc([N+](=O)[O-])c1` (repeat unit) the value was 93.00 °C.
Compound `*CC(*)OC(=O)c1cccc([Si](C)(C)C)c1` (repeat unit) gave a glass transition temperature of 80.00 °C.
For `*CC(*)OC(=O)c1ccccc1Cl` (repeat unit) the value was 55.8 °C; for `*CC(*)OC(=O)c1cccnc1` (repeat unit), 86.50 °C; for `*CC(*)OCCCCCCCOc1ccc(-c2ccc(C#N)cc2)cc1` (repeat unit), 13.00 °C.
Next, `*CC(*)OCCOc1ccc(/N=N/c2ccc([N+](=O)[O-])cc2)cc1` (repeat unit): 54.00 °C; `*CC(*)[Si](C)(C)Cc1ccccc1` (repeat unit): -24.00 °C.
For `*CC(*)c1c(C)cc(C)cc1C` (repeat unit) the value was 126.00 °C; for `*CC(*)c1c(F)c(F)c(P(=O)(O)O)c(F)c1F` (repeat unit), 330.00 °C.
`*CC(*)c1cc(-c2ccc(C(=O)OC(C)CC)cc2)ccc1-c1ccc(C(=O)OC(C)CC)cc1` (repeat unit) displayed a glass transition temperature of 212.50 °C.
On to `*CC(*)c1cc(-c2ccc(C(=O)OC(C)CCCCCC)cc2)ccc1-c1ccc(C(=O)OC(C)CCCCCC)cc1` (repeat unit), for which the glass transition temperature stood at 102.00 °C.
Next, `*CC(*)c1cc(Br)ccc1OC` (repeat unit): 86.00 °C.
For `*CC(*)c1cc(Br)ccc1OC(C)C` (repeat unit) the value was 35.00 °C; for `*CC(*)c1cc(Br)ccc1OCCCC` (repeat unit), 47.00 °C.
Next, `*CC(*)c1cc(C(=O)OCCCCCC)ccc1-c1ccc(OCCCCCCCC)cc1` (repeat unit): 64.00 °C.
With `*CC(*)c1cc(C(=O)OCCCCCCCCCC)ccc1-c1ccc(OCCCCCCCC)cc1` (repeat unit), the glass transition temperature came to 44.00 °C.
`*CC(*)c1cc(C(=O)OCCCCCCCCCCCC)ccc1-c1ccc(OCCCCCCCC)cc1` (repeat unit) returned a glass transition temperature of 42.00 °C.
Next, `*CC(*)c1cc(C(C)(C)C)ccc1C` (repeat unit): 87.00 °C; `*CC(*)c1cc(C(F)(F)F)cc(C(F)(F)F)c1` (repeat unit): 116.00 °C.
For `*CC(*)c1cc(C)cc(C)c1` (repeat unit) the value was 112.00 °C; for `*CC(*)c1cc(OC)c(OC(C)=O)c(OC)c1` (repeat unit), 147.00 °C.
For `*CC(*)c1ccc(/C(C)=N/O)cc1` (repeat unit) the value was 134.00 °C.
Compound `*CC(*)c1ccc(/C(Cc2ccccc2)=N/O)cc1` (repeat unit) returned a glass transition temperature of 111.00 °C.
Next, `*CC(*)c1ccc(B(Oc2ccc(-c3c(F)c(F)c(F)c(F)c3F)c3cccnc23)c2ccc(C(C)(C)C)cc2)cc1` (repeat unit): 245.00 °C; `*CC(*)c1ccc(B(Oc2ccc(-c3ccc(OC)cc3)c3cccnc23)c2ccc(C(C)(C)C)cc2)cc1` (repeat unit): 220.00 °C.
For `*CC(*)c1ccc(B(Oc2ccc(Cl)c3cccnc23)c2ccc(C(C)(C)C)cc2)cc1` (repeat unit) the value was 238.00 °C; for `*CC(*)c1ccc(B(Oc2cccc3cccnc23)c2ccc(C(C)(C)C)cc2)cc1` (repeat unit), 240.00 °C.
Next, `*CC(*)c1ccc(C(=O)C(F)(F)F)cc1` (repeat unit): 95.00 °C; `*CC(*)c1ccc(C(=O)CC)cc1` (repeat unit): 102.00 °C.
The compound `*CC(*)c1ccc(C(=O)CCCCCCC)cc1` (repeat unit) registered a glass transition temperature of 50.00 °C.
For `*CC(*)c1ccc(C(=O)CCN2CCCCC2)cc1` (repeat unit) the value was 38.00 °C; for `*CC(*)c1ccc(C(=O)OC(C)C)cc1` (repeat unit), 95.00 °C.
`*CC(*)c1ccc(C(=O)OCC(C)C)cc1` (repeat unit) came in with a glass transition temperature of 90.00 °C.
Consider `*CC(*)c1ccc(C(=O)OCC)cc1` (repeat unit), for which the glass transition temperature was found to be 94.00 °C.
Next, `*CC(*)c1ccc(C(=O)OCCCC)cc1` (repeat unit): 76.00 °C; `*CC(*)c1ccc(C(=O)OCCCCCC)cc1` (repeat unit): 66.00 °C; `*CC(*)c1ccc(C(=O)OCCN(CC)CC)cc1` (repeat unit): 74.00 °C.
Next, `*CC(*)c1ccc(C(=O)c2ccc(OC)cc2)cc1` (repeat unit): 103.00 °C; `*CC(*)c1ccc(C(=O)c2ccccc2)cc1` (repeat unit): 98.00 °C; `*CC(*)c1ccc(C(C)(O)CCC)cc1` (repeat unit): 135.00 °C.
`*CC(*)c1ccc(C(C)(O)CCCC)cc1` (repeat unit) displayed a glass transition temperature of 90.00 °C.
Next, `*CC(*)c1ccc(C(C)=O)cc1` (repeat unit): 115.50 °C.
For the compound `*CC(*)c1ccc(C(O)C(F)(F)F)cc1` (repeat unit), the glass transition temperature was 110.00 °C.
Next, `*CC(*)c1ccc(C(O)CCN(C)C)cc1` (repeat unit): 43.00 °C.
Next, `*CC(*)c1ccc(C(O)CCN2CCCCC2)cc1` (repeat unit): 54.00 °C.
Next, `*CC(*)c1ccc(CCC)cc1` (repeat unit): 46.8 °C; `*CC(*)c1ccc(CCCCCC)cc1` (repeat unit): -27.00 °C; `*CC(*)c1ccc(CCCCCCCC)cc1` (repeat unit): -45.00 °C.
Compound `*CC(*)c1ccc(CCCCCCCCC)cc1` (repeat unit) returned a glass transition temperature of -53.00 °C.
`*CC(*)c1ccc(CCl)cc1` (repeat unit): the glass transition temperature is 113.50 °C.
For `*CC(*)c1ccc(COCCC(F)(F)C(F)(F)C(F)(F)C(F)(F)F)cc1` (repeat unit) the value was 13.00 °C; for `*CC(*)c1ccc(COCCCC)cc1` (repeat unit), 10.00 °C; for `*CC(*)c1ccc(COCCCCCC)cc1` (repeat unit), -20.00 °C.
Compound `*CC(*)c1ccc(COCCO)cc1` (repeat unit) yielded a glass transition temperature of 46.00 °C.
Next, `*CC(*)c1ccc(COCCOCCCC)cc1` (repeat unit): -38.00 °C.
Take `*CC(*)c1ccc(COCCOCCCCCCCC)cc1` (repeat unit): the glass transition temperature is -42.00 °C.
For `*CC(*)c1ccc(COc2ccc(-c3ccc(-c4ccc(-c5ccc(CCCCCC)s5)s4)c4nsnc34)cc2)cc1` (repeat unit) the value was 122.00 °C; for `*CC(*)c1ccc(C[Si](C)(C)C)cc1` (repeat unit), 82.00 °C; for `*CC(*)c1ccc(Cl)c([N+](=O)[O-])c1` (repeat unit), 132.90 °C.
For `*CC(*)c1ccc(I)cc1` (repeat unit) the value was 158.00 °C; for `*CC(*)c1ccc(OCC)cc1` (repeat unit), 86.00 °C.
Next, `*CC(*)c1ccc(OCCOCCOC(C)=O)cc1` (repeat unit): -3.00 °C; `*CC(*)c1ccc(Oc2ccccc2)cc1` (repeat unit): 85.00 °C; `*CC(*)c1ccc(S(=O)(=O)OCCC)cc1` (repeat unit): 217.00 °C.
Take `*CC(*)c1ccc([SiH](C)C)cc1` (repeat unit): the glass transition temperature is 105.00 °C.
Compound `*CCCCCCN(CC(F)(F)C(F)(F)C(F)(F)C(F)(F)C(F)(F)C(F)(F)C(F)(F)F)C(=O)C(F)(F)C(F)(F)C(F)(F)C(=O)N(*)CC(F)(F)C(F)(F)C(F)(F)C(F)(F)C(F)(F)C(F)(F)C(F)(F)F` (repeat unit) showed a glass transition temperature of 187.50 °C.
For `*NC1CC(C)(C)CC(C)(CNC(=O)c2cc(NC(=O)C(C(C)CC)N3C(=O)c4ccccc4C3=O)cc(C(*)=O)c2)C1` (repeat unit) the value was 128.00 °C.
For `*OC(F)(C(=O)[N]([Li])S(=O)(=O)C(F)(F)C(*)(F)F)C(F)(F)F` (repeat unit) the value was 67.00 °C; for `*Oc1ccc(Oc2ccc(OC(=O)NC(=O)c3cc(C(=O)NC(*)=O)cc(C(C)(C)C)c3)cc2)cc1` (repeat unit), 114.50 °C.
Regarding `*Oc1ccc(S(=O)(=O)c2ccc(Oc3ccc(C(=C)c4ccc(*)cc4)cc3)cc2)cc1` (repeat unit), the glass transition temperature stood at 167.00 °C.
